# Experiments:
# [1] = Acute toxicity (LD50) in the Swiss mouse; settings: in vivo, 95% reliability limits in brackets, seventh day
# Method: (§1) Acute toxicity of the product was studied in the Swiss mouse and Wistar rat by oral and intraperitoneal administration. The substance was carried in 5% gum arabic for both methods of administration. The volumes inoculated for both methods of administration were 20 ml/kg of body weight for the mouse and 5 ml/kg for the rat. The LD50 values expressed in mg/kg were calculated on the seventh day of treatment by the probital analysis method.
# [2] = Acute toxicity (LD50) in the Wistar rat; settings: in vivo, seventh day
# Method: as §1
# rat = assay: Subacute toxicity in the rat by intramuscular administration; assay type: in vivo; settings: 60 and 120 mg/kg/die, 25 consecutive days
# Method: 2. Subacute toxicity in the rat by intramuscular administration
# The test was carried out for 25 consecutive days using drug doses of 60 and 120 mg/kg/die.
# [3] = system: conjunctival sac of the eye of a rabbit; assay: Local tolerability check, conjunctival sac of the rabbit eye; assay type: in vivo; settings: 0.5 solution dropped into conjunctival sac
# [4] = system: tissues where the drug was introduced; assay: Local tolerability check, intramuscular administration in the rat; assay type: in vivo; settings: 60-120 mg/kg/die, 25 consecutive days
# [5] = system: edema induced in the rear paw of the rat by carrageen; assay: Antiinflammatory activity, edema by carrageen in the rear paw of the rat (method of Winter); assay type: in vivo, Wistar rat
# Method: The antiinflammatory activity of AF1 was evaluated in comparison with that of a known drug (Tanderil®) by inhibiting the edema induced in the rear paw of the rat by carrageen. The method used is that described by Winter.
# The substances examined were administered orally to Wistar rats having a body weight of 165±15 g.
# The percentage edema inhibition for the various groups of animals was calculated by putting the average percentage increase of the control group equal to 100.
# edema induced by kaolin = assay: Antiinflammatory activity, edema by kaolin, diameter of the tibiotarsal joint; assay type: in vivo, rat
# Method: The antiedematous action of AF1 was also investigated by the test of Conbon and coll. (Arch.Int.Pharmacodyn. 99; 474, 1954), consisting of measuring the diameter of the tibiotarsal joint in both the rear paws of the rat. Groups of five animals representing controls and treated animals were used for two separate experiments. 0.2 ml of a sterile 10% kaolin suspension was injected directly into the joint of the two rear paws of each animal.
# The joint diameter was measured one hour after the kaolin injection and then every 24 hours afterwards for five consecutive days. The AF1 compound was administered intraperitoneally in a quantity of 100 mg/kg one hour after the kaolin injection and at the same time on the following days over the entire test period.
# painful reaction = assay: Analgesic activity in the mouse (method of Ben Bassat and coll.); assay type: in vivo; settings: 100 mg/kg oral
# Method: The analgesic activity of the compound under examination was tested in the mouse by the method of Ben Bassat and coll. (Arch. Int. Pharmacodyn, 122, 434, 1954) and comparing the drug in question with Tanderil® (T).
# stomachs = assay: Ulcerogenic action in the female Wistar rat; assay type: in vivo; settings: four hours after treatment
# Method: The ulcerogenic action of the product was evaluated in the female Wistar rat in comparison with that of other known antiinflammatory drugs.
# The products were administered orally in a dose corresponding to about two fifths their LD50.
# The animals were sacrificed four hours after treatment, and the stomachs examined to check any presence of ulcers.
# [6] = system: gastric or duodenal lesion; assay: Gastric or duodenal lesions in mice treated for 5 consecutive days; assay type: in vivo; settings: 200 mg/kg per day
# Haemophilus influeniae = assay: In vitro antibacterial activity, minimum inhibiting concentration (C.M.I.), Haemophilus influeniae; assay type: cell-based; settings: Gram (-), Difco nutrient broth
# Method: (§2) The antiseptic power of the substance under examination was evaluated by determining the minimum inhibiting concentration (C.M.I.) on a series of Gram negative and Gram positive germs related to the pathology of the respiratory tree.
# (§3) The culture broth used was Difco nutrient broth, and 8 test samples were used for each concentration tested. Guaiacol was used as the comparison drug.
# Sarcina lutea = assay: In vitro antibacterial activity, minimum inhibiting concentration (C.M.I.), Sarcina lutea; assay type: cell-based; settings: Micrococcus luteus, Gram (+), Difco nutrient broth
# Method: as §2, §3
# Micrococcus catarrhalis = assay: In vitro antibacterial activity, minimum inhibiting concentration (C.M.I.), Micrococcus catarrhalis; assay type: cell-based; settings: Gram (-), Difco nutrient broth
# Method: as §2, §3
# Micrococcus pyogenes = assay: In vitro antibacterial activity, minimum inhibiting concentration (C.M.I.), Micrococcus pyogenes; assay type: cell-based; settings: Staphylococcus aureus, Gram (+), Difco nutrient broth
# Method: as §2, §3
# [7] = system: Micrococcus tuberc. (bovis); assay: In vitro antibacterial activity, minimum inhibiting concentration (C.M.I.), Micrococcus tuberc. (bovis); assay type: cell-based; settings: read-out: Minimum inhibiting concentration
# Method: as §2, §3
# [8] = day 1 after kaolin, 100 mg/kg/day intraperitoneally
# [9] = day 2 after kaolin, 100 mg/kg/day intraperitoneally
# [10] = day 3 after kaolin, 100 mg/kg/day intraperitoneally
# [11] = day 4 after kaolin, 100 mg/kg/day intraperitoneally
# [12] = day 5 after kaolin, 100 mg/kg/day intraperitoneally
structure (smiles),measurement,setting,value
"Cc1ccc(OC(=O)C=Cc2ccccc2)c(C(=O)O)c1 [AF1, 2-(3-phenyl-2-propenoyloxy)-5-methylbenzoic acid]",LD50 at 168 h,[1]; ip,410 mg/kg
same,LD50 at 168 h,[1]; oral,902 mg/kg
same,LD50 at 168 h,"[2]; ip, 95% reliability limits in brackets",734 mg/kg
same,LD50 at 168 h,[2]; oral,> 2000 mg/kg
same,condition of the rats,rat,always excellent
same,significant changes in general condition and weight,rat,neither were there significant changes in general condition and weight
same,irritating or damaging modification to local tissues,[3],no irritating or otherwise damaging modification to local tissues
same,macroscopic change in the tissues where the drug was introduced,[4],no macroscopic change in the tissues where the drug was introduced
same,other undesirable local phenomena,[4],neither were other undesirable local phenomena observed
same,Percentage edema inhibition relative to the controls,"[5]; 25 mg/kg oral, 4 hours",42%
same,Percentage edema inhibition relative to the controls,"[5]; 25 mg/kg oral, 6 hours",71%
same,Percentage edema inhibition relative to the controls,"[5]; 50 mg/kg oral, 4 hours",62%
same,Percentage edema inhibition relative to the controls,"[5]; 50 mg/kg oral, 6 hours",84%
same,Percentage edema inhibition relative to the controls,"[5]; 75 mg/kg oral, 4 hours",73%
same,Percentage edema inhibition relative to the controls,"[5]; 75 mg/kg oral, 6 hours",87%
same,"Average of diameters, treated animals",edema induced by kaolin; 0 + 1 hour after kaolin (time of first AF1 dose),6.9 mm
same,"Average of diameters, treated animals","edema induced by kaolin; day 0 (baseline, before AF1)",5.8 mm
same,% change in tibiotarsal joint diameter relative to controls,edema induced by kaolin; [8],-11.1%
same,"Average of diameters, treated animals",edema induced by kaolin; [8],8.8 mm
same,% change in tibiotarsal joint diameter relative to controls,edema induced by kaolin; [9],-14.7%
same,"Average of diameters, treated animals",edema induced by kaolin; [9],8.7 mm
same,% change in tibiotarsal joint diameter relative to controls,edema induced by kaolin; [10],-26.6%
same,"Average of diameters, treated animals",edema induced by kaolin; [10],8.0 mm
same,% change in tibiotarsal joint diameter relative to controls,edema induced by kaolin; [11],-23.3%
same,"Average of diameters, treated animals",edema induced by kaolin; [11],7.9 mm
same,% change in tibiotarsal joint diameter relative to controls,edema induced by kaolin; [12],-25.7%
same,"Average of diameters, treated animals",edema induced by kaolin; [12],7.5 mm
same,% Increase in the painful reaction time relative to the controls,painful reaction; 30 min.,22%
same,% Increase in the painful reaction time relative to the controls,painful reaction; 60 min.,32%
same,% Increase in the painful reaction time relative to the controls,painful reaction; 90 min.,36%
same,% Increase in the painful reaction time relative to the controls,painful reaction; 120 min.,48%
same,% Increase in the painful reaction time relative to the controls,painful reaction; 150 min.,51%
same,No. of ulcerated animals/No. of treated animals,stomachs; 400 mg/kg oral,0/10
same,No. of ulcerated animals/No. of treated animals,stomachs; 800 mg/kg oral,1/10
same,gastric or duodenal lesion,[6],no sign of any gastric or duodenal lesion
same,MIC,Haemophilus influeniae,16 mg/mL
same,MIC,Sarcina lutea,9.15 mg/mL
same,MIC,Micrococcus catarrhalis,4.3 mg/mL
same,MIC,Micrococcus pyogenes,16.6 mg/mL
same,MIC,[7],3.15 mg/mL
"COc1ccccc1O [Guaiacol, reference compound]",MIC,Haemophilus influeniae,33 mg/mL
same,MIC,Sarcina lutea,33 mg/mL
same,MIC,Micrococcus catarrhalis,16.6 mg/mL
same,MIC,Micrococcus pyogenes,33 mg/mL
same,MIC,[7],33 mg/mL
"COc1ccc2cc([C@H](C)C(=O)O)ccc2c1 [Naproxen, reference compound]",No. of ulcerated animals/No. of treated animals,stomachs; 200 mg/kg oral,5/10
"CCCCC1C(=O)N(c2ccccc2)N(c2ccc(O)cc2)C1=O (stereo not shown) [Tanderil, reference compound]",Percentage edema inhibition relative to the controls,"[5]; 25 mg/kg oral, 4 hours",58%
same,Percentage edema inhibition relative to the controls,"[5]; 25 mg/kg oral, 6 hours",68%
same,Percentage edema inhibition relative to the controls,"[5]; 50 mg/kg oral, 4 hours",56%
same,Percentage edema inhibition relative to the controls,"[5]; 50 mg/kg oral, 6 hours",78%
same,% Increase in the painful reaction time relative to the controls,painful reaction; 30 min.,11%
same,% Increase in the painful reaction time relative to the controls,painful reaction; 60 min.,14%
same,% Increase in the painful reaction time relative to the controls,painful reaction; 90 min.,15%
same,% Increase in the painful reaction time relative to the controls,painful reaction; 120 min.,20%
same,% Increase in the painful reaction time relative to the controls,painful reaction; 150 min.,21%
